# Literature values in patent publication US12256762B2, “Sweetener composition and methods of making it” (eBIO Nutritional Sciences LLC, priority 2017, dated 2025).
# Details: published partition coefficients
row,Partition Coefficient (log P),Compound
1,7.06,CCCCC/C=C\C/C=C\CCCCCCCC(=O)O [Linoleic C18:2]
2,7.23,CCCCCCCCCCCCCCCC(=O)O [Palmitic C16:0]
3,8.02,CCCCCCCCCCCCCCCCCC(=O)O [Stearic C18:0]
4,6.59,CC/C=C\C/C=C\C/C=C\CCCCCCCC(=O)O [Alpha-Linolenic C18:3]
5,7.68,CCCCCCCC/C=C\CCCCCCCC(=O)O [Oleic C18:1]
6,3.18,"C=C1C[C@@]23CC[C@H]4[C@@](C)(CCC[C@@]4(C)C(=O)O)[C@@H]2CC[C@]1(O)C3 [Steviol, reference compound]"

row,Compound,Partition Coefficient (log P)
1,Cucurbitacin [reference compound],3.19
